What was measured:
[1] = system: AsPC-1-GTR and MIAPaCa-2-GTR cells; assay: Clonogenic assay, gemcitabine/tarceva-resistant lines; assay type: cell-based, human; conditions: 4 μmol/L CUR or CDF, 20 nmol/L GEM
[2] = system: AsPC-1, AsPC1-GTR, MIAPaCa-2, and MIAPaCa-2-GTR cell lines; assay: MTT cell survival and combination index, four PC lines; assay type: cell-based, human; conditions: 72 h, 4 μMol/L
From the text: Untreated control has been assigned a value of 100%. The p value shown represents comparisons between a single agent t and their combinations by using a paired t-test. A combination Index (CI)<1 for the CDF and GEM combination indicates synergism. The results are shown on FIGS. 17A to 17D.

[3] = system: pancreatospheres of AsPC-1, AsPC1-GTR, MIAPaCa-2, and MIAPaCa-2-GTR cells; assay: Sphere disintegration assay; assay type: cell-based, human; conditions: 5 days treatment of 10-day spheres
From the text: After allowing 10 days to generate the formation of pancreatospheres, the cells were subjected to the treating agent for 5 days.

[4] = system: pancreatospheres of AsPC-1 cells; assay: Sphere formation assay; assay type: cell-based, human; conditions: AsPC-1, varying concentrations
Description: A sphere formation assay was conducted for 1 week (FIG. 19A) and four weeks (FIG. 19B) to examine the effect of the treating agents on the CSC self-renewal capacity of the PC cell line AsPC-1. […] Therefore, it appears that CDF may cause pancreatospheres to be more sensitive to GEM, and as a result, CDF, or the combination of CDF/GEM, would be useful for targeted killing of CSCs.
Furthermore, pretreatment with CDF improved the outcome.

CD44 and EpCAM = CD44 and EpCAM immunostaining of pancreatospheres; assay type: cell-based, human; conditions: AsPC-1 and AsPC-1-GTR, 7 days
Description: Single cell suspensions of AsPC-1 and AsPC-1-GTR were plated into sphere formation media as previously described. After 7 days, the pancreatospheres were collected, washed, and fixed. The CSC biomarkers, CD44 and EpCAM, were used for immunostaining and the pancreatospheres were examined with confocal microscopy.

MIAPaCa-2 tumors = assay: MIAPaCa-2 subcutaneous xenograft tumor model; assay type: in vivo, mice; conditions: CDF or CUR 5 mg/mouse/day intragastric 12 days; GEM 1 mg/mouse i.v. x3
Description: Female CB17 SCID mice 4 wks old were purchased from Taconic Farms (Germantown, N.Y.). Small fragments of the MIAPaCa-2 xenograft were implanted subcutaneously and bilaterally into mice. […] Tumor measurements and changes in weight were performed and tissue was stored at −70° C. for RNA and protein extraction.

[5] = system: NF-κB DNA binding activity; assay: EMSA for NF-κB DNA binding activity in tumor tissue; assay type: in vivo, mice; conditions: MIA PaCa-2 tumors
Description: Nuclear extracts were prepared from tumor tissue induced by the MIA PaCa-2 cells using an homogenizer with 400 μl of ice cold lysis buffer extracted as described earlier. EMSA was performed using the Odyssey Infrared Imaging System with NF-κβ 1RDye labeled oligonucleotide from LI-COR, Inc. (Lincoln, Nebr.). An NF-Kβ competition control study was conducted using unlabeled NF-Kβ consensus oligonucleotide. The samples were loaded and run at 30 mA for 1 hour. The gel was scanned using Odyssey Infrared Imaging System (LI-COR, Inc.).

COX-2, PTEN expression = assay: Western blot of COX-2 and PTEN in tumor remnants; assay type: in vivo, mice; conditions: MIAPaCa-2 tumors
Description: COX-2, PTEN, and β-actin expression was determined by Western blot.

SMILES: COc1cc(/C=C/C(=O)C(=Cc2ccc(F)c(F)c2)C(=O)/C=C/c2ccc(O)c(OC)c2)ccc1O [CDF, (1E,6E)-1,7-bis(4-hydroxy-3-methoxyphenyl)hepta-1,6-diene{4(3,4 difluorobenzaldehyde)}-3,5-dione]
- reduction of clonogenicity [1]: 80%
- cell survival [2]: much more significant reduction of cell survival in PC cells than GEM, CUR, or their combination
- disintegration of pancreatospheres [3]: remarkably increased disintegration of pancreatospheres
- 2nd passage of pancreatospheres [4]: inhibited 2nd passage of pancreatospheres in a dose-dependent manner
- expression of CD44 and EpCAM in pancreatospheres (CD44 and EpCAM): decreased the expression of CD44 and EpCAM in pancreatospheres
- tumor growth (MIAPaCa-2 tumors): significantly inhibited tumor growth
- NF-κβ activation in tumor tissue [5]: down-regulated NF-κβ activation
- expression of PTEN in tumor remnants (COX-2, PTEN expression): up-regulated

— patent US20140303109A1 (priority 2010, published 2014)
